# Experimental data published in US7972610B2, “Antimicrobial compounds” (University of Strathclyde, priority 2005, dated 2011).
# System: A. castellanii
# Assay: alamarBlue assay of susceptibility of A. castellanii to glyphosate
# Assay type: cell-based
# Conditions: Acanthamoeba castellanii; A. castellanii (Neff strain) trophozoites, 96 hr incubation, glyphosate 9 mM to 0.27 μM, FIG. 1; read-out: IC50 (inhibition of A. castellanii, percent alamarBlue reduction relative to untreated control cultures)
# Protocol: Acanthamoeba polyphaga (Strain No. 1501/18) were obtained from CCAP (Cumbria, UK). Acanthamoeba castellanii (Neff strain) was kindly obtained from Keith Vickerman (Glasgow, UK). A. castellanii and A. polyphaga trophozoites were grown in (a) Rich media containing […] (Fluka, UK) and 0.9% maltose (Sigma, UK) and supplemented with 1% Penicillin, Streptomycin and Amphotericin B (All Sigma, UK) or (b) modified 11 containing 20% Rich media. Acanthamoeba spp. were incubated at room temperature in 75 cm^2 tissue culture flasks until 90-95% confluence, then harvested or sub-cultured using Accutase (Sigma, UK).
# The susceptibility of the A. castellanii to glyphosate as assessed by the almarBlue assay. The susceptibility of A. castellanii to glyphosate was determined by a modification of the method described by McBride et al., (2005). A. castellanii cells were grown in 75 cm^2 flasks until 90-95% confluence and harvested using Accutase (Sigma, UK). […] AlamarBlue reduction was assessed as previously described. The percent inhibition of almarBlue reduction was calculated using the formula: (εox)λAλ1−(εox)λ1Aλ. of treated Acanthamoeba/(εox)λA°λ1−(εox)λ1A°λ of untreated Acanthamoeba×100
# [where: °λ1=absorbance of untreated control with alamarBlue at 570 nm); °λ2=absorbance of untreated control with alamarBlue at 600 nm)]. […]
structure (smiles),measurement,value
"O=C(O)CNCP(=O)(O)O [Glyphosate, N-(phosphonomethyl)glycine]",IC50,2.19 to 4.39 µM
